Results as given in patent publication US20210395248A1, “INHIBITORS OF HUMAN IMMUNODEFICIENCY VIRUS REPLICATION” (ViiV HEALTHCARE UK (NO.5) LIMITED, priority 2018, published 2021).

Experiments:
[1] = tested on: recombinant NL4-3 virus (Renilla luciferase reporter) in MT-2 cells; test: HIV cell culture assay (antiviral activity, luciferase readout in infected MT-2 cells); type: cell-based; details: NL43
Method: HIV cell culture assay—MT-2 cells, 293T cells and the proviral DNA clone of NL4-3 virus were obtained from the NIH AIDS Research and Reference Reagent Program. MT-2 cells were propagated in RPMI 1640 media supplemented with 10% heat inactivated fetal bovine serum (FBS), […]. The 293T cells were propagated in DMEM media supplemented with 10% heat inactivated FBS, […]. A recombinant NL4-3 proviral clone, in which a section of the nef gene was replaced with the Renilla luciferase gene, was used to make the reference virus used in these studies. The recombinant virus was prepared through transfection of the recombinant NL4-3 proviral clone into 293T cells using Transit-293 Transfection Reagent from Mirus Bio LLC (Madison, Wis.). Supernatent was harvested after 2-3 days and the amount of virus present was titered in MT-2 cells using luciferase enzyme activity as a marker by measuring luciferase enzyme activity. Luciferase was quantitated using the EnduRen Live Cell Substrate from Promega (Madison, Wis.). Antiviral activities of compounds toward the recombinant virus were quantified by measuring luciferase activity in MT-2 cells infected for 4-5 days with the recombinant virus in the presence of serial dilutions of the compound.
The 50% effective concentration (EC50) was calculated by using the exponential form of the median effect equation where (Fa)=1/[1+(EC50/drug conc.)m] (Johnson V A, Byington RT. Infectivity Assay. In Techniques in HIV Research, ed. Aldovini A, Walker B D. 71-76. New York: Stockton Press. 1990). The 50% inhibitory concentration (EC50) was calculated by using the exponential form of the median effect equation where percent inhibition=1/[1+(EC50/drug concentration)m], where m is a parameter that reflects the slope of the concentration-response curve.

[2] = Compound cytotoxicity, XTT-based colorimetric assay; type: cell-based; details: human; uninfected MT2 cells, day 4, XTT; read-out: CC50
Method: Compound cytotoxicity and the corresponding CC50 values were determined using the same protocol as described in the antiviral assay except that uninfected cells were used. Cytotoxicity was assessed on day 4 in uninfected MT2 cells by using a XTT (2,3-bis [2-Methoxy-4-nitro-5-sulfophenyl]-2H-tetrazolium-5-carboxyanilide inner salt)-based colorimetric assay (Sigma-Aldrich, St Louis, Mo.).

SMILES | EC50 [1] | CC50 at 4 days [2]
C[C@@H]1CN(c2ccc3c(=O)n(-c4ccc(Cl)c5c(NS(C)(=O)=O)nn(C)c45)c([C@H](Cc4cc(F)cc(F)c4)NC(=O)Cn4ccc(C5CC5)n4)nc3n2)C[C@H](C)O1 (atropisomer, axis not shown; (P)) [Example 16, N—((S)-1-((3P)-3-(4-chloro-1-methyl-3-(methylsulfonamido)-1H-indazol-7-yl)-7-((2S,6R)-2,6-dimethylmorpholino)-4-oxo-3,4-dihydropyrido[2,3-d]pyrimidin-2-yl)-2-(3,5-difluorophenyl)ethyl)-2-(3-cyclopropyl-1H-pyrazol-1-yl)acetamide] | 0.2 nM | > 500 nM
C[C@@H]1CN(c2ccc3c(=O)n(-c4ccc(Cl)c5c(NS(C)(=O)=O)nn(CC(F)(F)F)c45)c([C@H](Cc4cc(F)cc(F)c4)NC(=O)Cn4ccc(C5CC5)n4)nc3n2)C[C@H](C)O1 (atropisomer, axis not shown; (P)) [Example 17, N—((S)-1-((3P)-3-(4-chloro-3-(methylsulfonamido)-1-(2,2,2-trifluoroethyl)-1H-indazol-7-yl)-7-((2S,6R)-2,6-dimethylmorpholino)-4-oxo-3,4-dihydropyrido[2,3-d]pyrimidin-2-yl)-2-(3,5-difluorophenyl)ethyl)-2-(3-cyclopropyl-1H-pyrazol-1-yl)acetamide] | 0.24 nM | > 500 nM
CC(C)n1ccc(CC(=O)N[C@@H](Cc2cc(F)cc(F)c2)c2nc3nc(N4C[C@@H](C)O[C@@H](C)C4)ccc3c(=O)n2-c2ccc(Cl)c3c(NS(C)(=O)=O)nn(C)c23)n1 (atropisomer, axis not shown; (P)) [Example 18, N—((S)-1-((3P)-3-(4-chloro-1-methyl-3-(methylsulfonamido)-1H-indazol-7-yl)-7-((2S,6R)-2,6-dimethylmorpholino)-4-oxo-3,4-dihydropyrido[2,3-d]pyrimidin-2-yl)-2-(3,5-difluorophenyl)ethyl)-2-(1-isopropyl-1H-pyrazol-3-yl)acetamide] | 0.16 nM | > 100 nM
Cn1nc(NS(C)(=O)=O)c2c(Cl)ccc(-n3c([C@H](Cc4cc(F)cc(F)c4)NC(=O)Cn4nc(C(F)F)c5c4C(F)(F)[C@@H]4C[C@H]54)nc4nc(N5CCCOCC5)ccc4c3=O)c21 (atropisomer, axis not shown; (P)) [Example 22, N—((S)-1-((3P)-3-(4-chloro-1-methyl-3-(methylsulfonamido)-1H-indazol-7-yl)-7-(1,4-oxazepan-4-yl)-4-oxo-3,4-dihydropyrido[2,3-d]pyrimidin-2-yl)-2-(3,5-difluorophenyl)ethyl)-2-((3bS,4aR)-3-(difluoromethyl)-5,5-difluoro-3b,4,4a,5-tetrahydro-1H-cyclopropa[3,4]cyclopenta[1,2-c]pyrazol-1-yl)acetamide] | 0.052 nM | > 100 nM
Cn1nc(NS(C)(=O)=O)c2c(Cl)ccc(-n3c([C@H](Cc4cc(F)cc(F)c4)NC(=O)Cn4nc(C(F)F)c5c4C(F)(F)[C@@H]4C[C@H]54)nc4nc(N5CCOCC5)ccc4c3=O)c21 (atropisomer, axis not shown; (P)) [Example 23, N—((S)-1-((3P)-3-(4-chloro-1-methyl-3-(methylsulfonamido)-1H-indazol-7-yl)-7-morpholino-4-oxo-3,4-dihydropyrido[2,3-d]pyrimidin-2-yl)-2-(3,5-difluorophenyl)ethyl)-2-((3bS,4aR)-3-(difluoromethyl)-5,5-difluoro-3b,4,4a,5-tetrahydro-1H-cyclopropa[3,4]cyclopenta[1,2-c]pyrazol-1-yl)acetamide] | 0.058 nM | > 100 nM
Cn1nc(NS(C)(=O)=O)c2c(Cl)ccc(-n3c([C@H](Cc4cc(F)cc(F)c4)NC(=O)Cn4nc(C(F)F)c5c4C(F)(F)[C@@H]4C[C@H]54)nc4nc(NCCC(C)(C)F)ccc4c3=O)c21 (atropisomer, axis not shown; (P)) [Example 24, N—((S)-1-((3P)-3-(4-chloro-1-methyl-3-(methylsulfonamido)-1H-indazol-7-yl)-7-((3-fluoro-3-methylbutyl)amino)-4-oxo-3,4-dihydropyrido[2,3-d]pyrimidin-2-yl)-2-(3,5-difluorophenyl)ethyl)-2-((3bS,4aR)-3-(difluoromethyl)-5,5-difluoro-3b,4,4a,5-tetrahydro-1H-cyclopropa[3,4]cyclopenta[1,2-c]pyrazol-1-yl)acetamide] | 0.04 nM | > 100 nM
Cn1nc(NS(C)(=O)=O)c2c(Cl)ccc(-n3c([C@H](Cc4cc(F)cc(F)c4)NC(=O)Cn4nc(C(F)F)c5c4C(F)(F)[C@@H]4C[C@H]54)nc4nc(NCCC(C)(F)F)ccc4c3=O)c21 (atropisomer, axis not shown; (P)) [Example 25, N—((S)-1-((3P)-3-(4-chloro-1-methyl-3-(methylsulfonamido)-1H-indazol-7-yl)-7-((3,3-difluorobutyl)amino)-4-oxo-3,4-dihydropyrido[2,3-d]pyrimidin-2-yl)-2-(3,5-difluorophenyl)ethyl)-2-((3bS,4aR)-3-(difluoromethyl)-5,5-difluoro-3b,4,4a,5-tetrahydro-1H-cyclopropa[3,4]cyclopenta[1,2-c]pyrazol-1-yl)acetamide] | 0.037 nM | > 100 nM
Cn1nc(NS(C)(=O)=O)c2c(Cl)ccc(-n3c([C@H](Cc4cc(F)cc(F)c4)NC(=O)Cn4nc(C(F)F)c5c4C(F)(F)[C@@H]4C[C@H]54)nc4nc(N5CC(C)(C)OC(C)(C)C5)ccc4c3=O)c21 (atropisomer, axis not shown; (P)) [Example 26, N—((S)-1-((3P)-3-(4-chloro-1-methyl-3-(methylsulfonamido)-1H-indazol-7-yl)-4-oxo-7-(2,2,6,6-tetramethylmorpholino)-3,4-dihydropyrido[2,3-d]pyrimidin-2-yl)-2-(3,5-difluorophenyl)ethyl)-2-((3bS,4aR)-3-(difluoromethyl)-5,5-difluoro-3b,4,4a,5-tetrahydro-1H-cyclopropa[3,4]cyclopenta[1,2-c]pyrazol-1-yl)acetamide] | 0.023 nM | > 100 nM
Cn1nc(NS(C)(=O)=O)c2c(Cl)ccc(-n3c([C@H](Cc4cc(F)cc(F)c4)NC(=O)Cn4nc(C(F)F)c5c4C(F)(F)[C@@H]4C[C@H]54)nc4nc(N5CCOC(C)(C)C5)ccc4c3=O)c21 (atropisomer, axis not shown; (P)) [Example 29, N—((S)-1-((3P)-3-(4-chloro-1-methyl-3-(methylsulfonamido)-1H-indazol-7-yl)-7-(2,2-dimethylmorpholino)-4-oxo-3,4-dihydropyrido[2,3-d]pyrimidin-2-yl)-2-(3,5-difluorophenyl)ethyl)-2-((3bS,4aR)-3-(difluoromethyl)-5,5-difluoro-3b,4,4a,5-tetrahydro-1H-cyclopropa[3,4]cyclopenta[1,2-c]pyrazol-1-yl)acetamide] | 0.035 nM | > 100 nM
CN(CCC(F)(F)F)c1ccc2c(=O)n(-c3ccc(Cl)c4c(NS(C)(=O)=O)nn(C)c34)c([C@H](Cc3cc(F)cc(F)c3)NC(=O)Cn3nc(C(F)F)c4c3C(F)(F)[C@@H]3C[C@H]43)nc2n1 (atropisomer, axis not shown; (P)) [Example 30, N—((S)-1-((3P)-3-(4-chloro-1-methyl-3-(methylsulfonamido)-1H-indazol-7-yl)-7-(methyl(3,3,3-trifluoropropyl)amino)-4-oxo-3,4-dihydropyrido[2,3-d]pyrimidin-2-yl)-2-(3,5-difluorophenyl)ethyl)-2-((3bS,4aR)-3-(difluoromethyl)-5,5-difluoro-3b,4,4a,5-tetrahydro-1H-cyclopropa[3,4]cyclopenta[1,2-c]pyrazol-1-yl)acetamide] | 0.032 nM | > 100 nM
Cn1nc(NS(C)(=O)=O)c2c(Cl)ccc(-n3c([C@H](Cc4cc(F)cc(F)c4)NC(=O)Cn4nc(C(F)F)c5c4C(F)(F)[C@@H]4C[C@H]54)nc4nc(NCCCC(F)(F)F)ccc4c3=O)c21 (atropisomer, axis not shown; (P)) [Example 31, N—((S)-1-((3P)-3-(4-chloro-1-methyl-3-(methylsulfonamido)-1H-indazol-7-yl)-4-oxo-7-((4,4,4-trifluorobutyl)amino)-3,4-dihydropyrido[2,3-d]pyrimidin-2-yl)-2-(3,5-difluorophenyl)ethyl)-2-((3bS,4aR)-3-(difluoromethyl)-5,5-difluoro-3b,4,4a,5-tetrahydro-1H-cyclopropa[3,4]cyclopenta[1,2-c]pyrazol-1-yl)acetamide] | 0.11 nM | > 100 nM
